Patent US6699287B2, “Dermal scaffold using alkaline pre-treated chitosan matrix or alkaline pre-treated chitosan and alkaline pre-treated collagen mixed matrix” (Korea Atomic Energy Research Institute, priority 1999, dated 2004)

System: human dermal fibroblast cells
Assay: Cytotoxicity test of chitosan derivates in vitro (MTT)
Type: cell-based
Conditions: 48 hours after treatment
Experimental: 1×10^4 of human dermal fibroblast cells in 96 well plate were cultured in DMEM medium supplemented with 100 μl of 10% serum. Then, the cultured cells were treated with 5, 50, and 500 ng/ml of chitosan oligomer, CM-chitin and 3,6-S-chitin, respectively. 48 hours after treatment, MTT (3-[4,5-dimethylthiazol-2-yl]-2,5-diphenyltetrazolium bromide; Thiazolyl blue, Sigma Product No. M5655) was added thereto and then, the mixture was allowed to stand for 4 hours. After removal of the culture medium, the resultant mixture was washed with phosphate buffered saline 2-3 times and 100 μl of DMSO (dimethylsulfoxide) was added thereto. After chromogenesis, an absorbance was measured at 545 nm on each well using ELISA reader.

Substance | Viability Assay Result Of Human Dermal Fibroblasts (MTT absorbance at 545 nm) (5 ng/ml) | Viability Assay Result Of Human Dermal Fibroblasts (MTT absorbance at 545 nm) (50 ng/ml) | Viability Assay Result Of Human Dermal Fibroblasts (MTT absorbance at 545 nm) (500 ng/ml)
chitosan oligomer | 0.629 | 0.618 | 0.733
3,6-S-chitin | 0.608 | 0.727 | 0.595
CM-chitin | 0.603 | 0.630 | 0.603
